Reference: patent US4302448A, “Secretin preparations with intensified and protracted action, process for their manufacture, their use as well as dihydroxybenzoyl-L-tyrosine” (Hoechst Aktiengesellschaft, priority 1979, dated 1981)

What was measured:
Format in all cases: in vivo
pancreatic juice = assay: Pancreatic juice production in rats after rectal administration of secretin suppository with or without depot body
Experimental: The intensified effect of secretin in the form of rectally administrable preparations due to the depot bodies used according to the invention becomes evident from the drawing. In a test carried out on 8 rats each weighing 0.5 kg, 100 μg of secretin in a suppository of a weight of 73 mg cause the production of 92 μl of pancreatic juice (curve 1). With the addition of 25 mg of 3,5-dihydroxybenzoyl-L-tyrosine the volume of pancreatic juice rose to 1778 μl (curve 2). This corresponds to an increase of the effect to about 20 times its original value. […] In the present case the secretin dose has been chosen very high in order to obtain a measurable volume also without additive.
With a non-maximum stimulation in the normal dose range (about half the dose), the increase of the effect is about 50-fold.

[1] = test system: Pancreatic juice secretion of the rat; assay: Pancreatic juice secretion of the rat after subcutaneous administration of secretin with depot bodies; conditions: rat, subcutaneous, 5 CU/kg secretin + 10 mg depot body/animal; for Δ% vs. control (percentage by which the pancreatic secretion is above the basal secretion after 5 hours): control=100%, measure of depot effect; for Rel. Intensity of effect over 5 hours (total pancreatic juice secretion over 5 hours as compared with control): control (0.9% of NaCl)=1
Experimental: Secretin preparations for subcutaneous application which contained the depot bodies specified in the following Table were tested in animal experiments. In the experimental procedure chosen, 5 to 8 male rats weighing 300 to 500 g each are administered subcutaneously 5 CU/kg of secretin (CU means clinical unit) and 10 mg of the depot body to be tested each in aqueous solution or suspension.
The animals remain without food for 18 hours prior to the test, but they are given water ad libitum. Under urethane anaesthesia (5 ml/kg i.m. of 25% urethane) the abdomen is opened by median section after tracheotomy, and the pylorus is ligated. The ductus choledochus is tied off in its proximal part near the porta hepatis, and the bile is led into the duodenum via a polyethylene tube of a diameter of […]. A cannula or catheter is inserted into the distal part of the bile duct, into which the numerous pancreatic ducts open, immediately before it opens into the duodenum, and the volume of the secretion running off is measured in 60 minute intervals. Following a preliminary run of 60 minutes the preparations are administered.
L means the compound known from literature and characterized by the melting point, optionally UV, IR or NMR. A to C relate to the preparation according to Example 1, process A to C. These compounds were characterized by ultimate analysis. The third column indicates the percentage by which the pancreatic secretion is above the basal secretion after 5 hours (calculated on the control=100%). This value is a measure for the depot effect of the depot body tested. Column 4 indicates the intensification of the secretin effect, with the total pancreatic juice secretion having been given over 5 hours as compared with the control (0.9% of NaCl)=1.

[2] = test system: pancreatic juice secretion; assay: Biological effect of rectally administered secretin measured via pancreatic juice secretion, compared with subcutaneous injection; conditions: secretin in suppositories or rectal capsules without depot body
Experimental: Many medicaments may be incorporated in suppositories and administered rectally. They are sufficiently well absorbed in this form. […] For example, if secretin is administered by this route, the biological effect which is measured via pancreatic juice secretion is only about 1% of the effect obtained with subcutaneous injection.

[3] = rats, rectal, 100 μg secretin + 25 mg depot body

O=C(N[C@@H](Cc1ccc(O)cc1)C(=O)O)c1cc(O)cc(O)c1 [3,5-Dihydroxybenzoyl-L-tyrosine]
volume of pancreatic juice (pancreatic juice; 8 rats of 0.5 kg, rectal, 100 μg secretin suppository with addition of 25 mg depot body (curve 2)): 1778 µL
increase in efficacy, rectal versus subcutaneous application (in words) (pancreatic juice; comparison of routes): greater increase in efficacy when applied rectally than with subcutaneous application
increase of the effect relative to original value (secretin suppository without additive) (pancreatic juice; [3]): about 20 times
protracted action (in words) (pancreatic juice; [3]): a protracted action can also be observed
increase of the effect (pancreatic juice; rectal, non-maximum stimulation in the normal dose range (about half the dose)): about 50 fold
Δ% vs. control (percentage by which the pancreatic secretion is above the basal secretion after 5 hours) [1]: 76%
Rel. Intensity of effect over 5 hours (total pancreatic juice secretion over 5 hours as compared with control) [1]: 9.2

Bis-phloretin phosphate
Δ% vs. control (percentage by which the pancreatic secretion is above the basal secretion after 5 hours) [1]: 56%
Rel. Intensity of effect over 5 hours (total pancreatic juice secretion over 5 hours as compared with control) [1]: 2.5

Phloretin-3,5-dimethylphenyl phosphate
Δ% vs. control (percentage by which the pancreatic secretion is above the basal secretion after 5 hours) [1]: 68%
Rel. Intensity of effect over 5 hours (total pancreatic juice secretion over 5 hours as compared with control) [1]: 3.7

Tris-(2,8-dihydroxy-3-naphthoyl)-diethylene-triamine
Δ% vs. control (percentage by which the pancreatic secretion is above the basal secretion after 5 hours) [1]: 94%
Rel. Intensity of effect over 5 hours (total pancreatic juice secretion over 5 hours as compared with control) [1]: 9.4

Tris-(2-hydroxybenzoyl)-diethylene-triamine
Δ% vs. control (percentage by which the pancreatic secretion is above the basal secretion after 5 hours) [1]: 62%
Rel. Intensity of effect over 5 hours (total pancreatic juice secretion over 5 hours as compared with control) [1]: 8.1

Tris-(3-hydroxybenzoyl)-diethylene-triamine
Δ% vs. control (percentage by which the pancreatic secretion is above the basal secretion after 5 hours) [1]: 71%
Rel. Intensity of effect over 5 hours (total pancreatic juice secretion over 5 hours as compared with control) [1]: 8.0

Tris-(4-hydroxybenzoyl)-diethylene-triamine
Δ% vs. control (percentage by which the pancreatic secretion is above the basal secretion after 5 hours) [1]: 68%
Rel. Intensity of effect over 5 hours (total pancreatic juice secretion over 5 hours as compared with control) [1]: 7.8

secretin [reference compound]
production of pancreatic juice (pancreatic juice; 8 rats of 0.5 kg, rectal, 100 μg secretin in 73 mg suppository, no additive (curve 1)): 92 µL
biological effect of rectal administration relative to effect obtained with subcutaneous injection [2]: about 1%
